Converted amounts (≈) assume the structure as drawn.
How the values were obtained:
[1] = Aqueous solubility of quercetin without and with sulfated beta-cyclodextrin (UV absorbance at 375 nm); assay type: physicochemical; settings: aqueous sulfated beta-cyclodextrin solution, aqueous with cosolvent or surfactant or cyclodextrin
Excerpt: FIG. 8 depicts a graph of sulfated beta-cyclodextrin formed 1:1 complex with antioxidant quercetin, showing quercetin can be encapsulated in the gel. […] In the presence of sulfated beta-cyclodextrin, the absorbance increased. The sulfated beta-cyclodextrin can form 1:1 complex with quercetin through host-guest chemistry. […] Embedment of quercetin in hydrogel and its release: The sulfated beta-cyclodextrin in the crosslinked polymer hydrogel allows drug molecules, even hydrophobic compounds, to incorporate into it through host-guest interaction. An encapsulated-quercetin hydrogel film was prepared (FIG. 8). […] The high equilibrium binding constant of the sulfated β-cyclodextrin/quercetin complex (Kf=2.53×10^4 M^−1 at 25° C.) permits encapsulation of high concentration of quercetin in gel. The fabrication of the quercetin hydrogel is similar to that mentioned above, except for alternative sulfated beta-cyclodextrin with 1:1 sulfated beta-cyclodextrin/quercetin complex. The resultant hydrogel attained similar high fracture toughness and stretching ability in the presence of quercetin (FIG. 9).

[2] = 'as known'; cited from earlier work

O=c1c(O)c(-c2ccc(O)c(O)c2)oc2cc(O)cc(O)c12 [quercetin]
solubility ([1]; in 1 mM sulfated beta-cyclodextrin): 42 µM (≈ 12.7 µg/mL)
solubility ([1]; in 2 mM sulfated beta-cyclodextrin): 73 µM (≈ 22.1 µg/mL)
solubility in water [2]: ~1.3 µM (≈ 0.393 µg/mL)

From patent publication US11291750B2, “Hydrogel condom” (THE TEXAS A & M UNIVERSITY SYSTEM, priority 2016, dated 2022)
